Read-outs that look alike come from different tables or passages of the source.
Experiments:
[1] = Comparison of solubilities (saturated concentration by HPLC); assay type: physicochemical; settings: for solubility thermodynamic at 16 h: thermodynamic from solid
Method: The thus-obtained ursolic acid phosphate was compared to ursolic acid (control) on their solubilities. The mixture was stirred for 16 hours and was passed through a 0.45-μm filter. After that, concentration measurement was performed by HPLC.

[2] = system: Hartley white guinea pigs; experiment: Guinea pig maximization test (skin sensitivity); assay type: in vivo; settings: challenge 5%, 0.5%, Draize criteria
Method: A guinea pig maximization test was performed using ten Hartley white guinea pigs to examine the presence or absence of the skin sensitivity of ursolic acid phosphate to the guinea pigs. An emulsified product containing distilled water and Freund's complete adjuvant (FCA) in equal volumes, a test substance (dissolved in olive oil, 5%), and a mixture including a test substance and FCA in equal volumes were separately injected intracutaneously to five guinea pigs in two sites with 0.1 mL, respectively. The next day, the hair of the intracutaneous injection sites was shaved, and a mixture of 10% sodium lauryl sulfate/petrolatum was applied thereto. The day after that, 0.1 ml of 5% ursolic acid phosphate (dissolved in olive oil) was applied with a patch for 48 hours to the shaved sites to complete induction of sensitization. After completion of induction of sensitization, a 10-day rest period was provided. After completion of the period, the hair in back untreated sites was shaved. Then, each of 0.1 ml of 5%, 0.5%, and 0% ursolic acid phosphate (dissolved in olive oil) was applied with a patch for 24 hours to respective three sites to […]. Thirty minutes and 24 hours after patch removal, skin reactions were observed. […]

SMILES	solubility compared to that of ursolic acid [1]	Saturated concentration ([1]; 16 h, pH 7)	Saturated concentration ([1]; 16 h, pH 9)	solubility thermodynamic at 16 h ([1]; pH 9, aqueous buffer)	solubility thermodynamic at 16 h ([1]; water)	skin reactions, sample-administered group versus control group ([2]; 0% in olive oil, patch 24 hours)	sensitization to skin ([2]; induction with 5% in olive oil, 0% patch 24 hours, observed 30 minutes and 24 hours after patch removal)	Saturated concentration ([1]; Solvent 8% EtOH/0.1 M phosphate Buffer (pH7.0), stirred 16 hours, 0.45-μm filter, HPLC)	Saturated concentration ([1]; Solvent 8% EtOH/0.1 M phosphate Buffer (pH9), stirred 16 hours, 0.45-μm filter, HPLC)	Saturated concentration ([1]; Solvent 8% EtOH/DW, stirred 16 hours, 0.45-μm filter, HPLC)	Saturated concentration ([1]; Solvent EtOH, stirred 16 hours, 0.45-μm filter, HPLC)	solubility thermodynamic at 16 h ([1]; pH 9, aqueous buffer, Solvent 0.1 M phosphate Buffer (pH9), stirred 16 hours, 0.45-μm filter, HPLC, read-out: Saturated concentration)	solubility thermodynamic at 16 h ([1]; water, Solvent DW, stirred 16 hours, 0.45-μm filter, HPLC, read-out: Saturated concentration)
C[C@H]1[C@H](C)CC[C@]2(C(=O)O)CC[C@]3(C)C(=CC[C@@H]4[C@@]5(C)CCC(OP(=O)(O)O)C(C)(C)[C@@H]5CC[C@]43C)[C@H]12 (stereo partly shown) [ursolic acid phosphate, Ursolic acid phosphate]	improved	31.1 µg/mL	7.5 µg/mL	120 µg/mL	20.1 µg/mL	no differences	not observed	–	–	–	–	–	–
C[C@H]1[C@H](C)CC[C@]2(C(=O)O)CC[C@]3(C)C(=CC[C@@H]4[C@@]5(C)CC[C@H](O)C(C)(C)[C@@H]5CC[C@]43C)[C@H]12 [ursolic acid, reference compound]	–	–	–	–	–	–	–	<1 µg/mL	<1 µg/mL	<1 µg/mL	<1 µg/mL	< 1 µg/mL	< 1 µg/mL

Reference: US7718635B2, “Triterpenic acid derivative and preparation for external application for skin comprising the same” (Pola Chemical Industries Inc., priority 2005, dated 2010)
